This series is described as follows: solubility in water (analytical studies). It counts as physicochemical. As to conditions: compared with the new polymorphic hydrochloride salts.

As for `Cc1cc2c(s1)Nc1ccccc1N=C2N1CCN(C)CC1` [olanzapine base, 2-methyl-4-(4-methylpiperazin-1-yl)-10H-thieno-[2,3-b][1,5]-benzodiazepine], the solubility in water entry is recorded as “significantly lower”.

The values are drawn from patent US7951798B2, “Polymorphs of olanzapine hydrochloride” (Egis Hyogyszergyar Nyrt., priority 2003, dated 2011).
